The term IC50 denotes the concentration that gives 50% inhibition.

For test [1], the system named is HepG2. Nature of the test: Cytotoxicity against human HepG2 Cells by MTT/Trypan Blue Exclusion Assay. The format is functional, cell-based.
Test [2] concerns HCT-116. Nature of the test: Antitumor activity against human HCT116 cells after 72 hrs by FMCA method. It is filed as functional, cell-based. The conditions noted are these: HCT-116, 72 h, pooled result: one value given for 5 cell lines, strains, targets or settings.
The test system of the next test is EA.hy 926. The test is described as follows: Cytotoxicity against human EAhy926 Cells after 72 hrs by MTT assay. It is filed as functional, cell-based. The conditions noted are these: EA.hy 926, 72 h. (In general: Tetrazolium dyes change colour on reduction, which living cells bring about.)
The test system of test [3] is HT-29. The test is described as follows: Cytotoxicity against human HT-29 Cells after 72 hrs by MTT assay. It is filed as functional, cell-based. The conditions noted are these: HT-29, 72 h.
The test system of the next test is CHO-K1. Nature of the test: Cytotoxicity against […] Cells after 72 hrs by MTT assay. It is filed as functional, cell-based. The conditions noted are these: Cricetulus griseus, CHO-K1, 72 h.
Another test has as its system Caco-2. Nature of the test: Cytotoxicity against human Caco2 Cells after 72 hrs by MTT assay. It is filed as functional, cell-based. The conditions noted are these: Caco-2, 72 h.
For test [4], the system named is HepG2. Nature of the test: Cytotoxicity against human HepG2 Cells after 72 hrs by MTT assay. The format is functional, cell-based. The conditions noted are these: HepG2, 72 h.
The nature of test [5]: Cytotoxicity against mitoxantrone resistant […] cells expressing BCRP after 15 mins by fluorescence assay. The format is functional, cell-based. The conditions noted are these: Canis lupus familiaris, MDCK2, 0.25 h.
The next test deals with L02. The test is described as follows: Cytotoxicity against human HL-7702 cells. The format is functional, cell-based.
In a further test the test system is HEp-2. Nature of the test: Cytotoxicity against human Hep2 Cells. It is filed as functional, cell-based.
For another test, the system named is MCF7. Nature of the test: Cytotoxicity against human MCF7 Cells after 48 hrs by neutral red dye-based assay. It is filed as functional, cell-based. The conditions noted are these: MCF7, 48 h.
In the next test the test system is A549. Nature of the test: Cytotoxicity against human A549 Cells by MTT assay. It is filed as functional, cell-based.
The test system of a further test is AGS. The test is described as follows: Cytotoxicity against human AGS Cells by MTT assay. The format is functional, cell-based.
The test system of the next test is KBM5. The test is described as follows: Growth inhibition of human KBM5 cells relative to control. It is filed as functional.
The subject of test [6] is HCT-116. Nature of the test: Growth inhibition of human HCT116 cells relative to control. It is filed as functional.
The subject of another test is U373 MG. Nature of the test: Cytotoxicity against human U373MG Cells 48 hrs by MTS assay. The format is functional, cell-based, U-373MG ATCC.
In the next test the test system is U-251. Nature of the test: Cytotoxicity against human U251MG cells after 48 hrs by MTS assay. It is filed as functional, cell-based. The conditions noted are these: U-251, 48 h.
Test [7] is described as follows: Cytotoxicity against human GBM3 Cells 48 hrs by MTS assay. It is filed as functional. The conditions noted are these: GBM3, 48 h.
Test [8] is described as follows: Cytotoxicity against human GBM5 Cells 48 hrs by MTS assay. It is filed as functional.
Test [9] in a line: Cytotoxicity against human GBM4 Cells 48 hrs by MTS assay. The format is functional.
The next test relates to U-87 MG. The test is described as follows: Cytotoxicity against human U87MG Cells 48 hrs by MTS assay. The format is functional, cell-based, U-87MG ATCC.
The nature of test [10]: Cytotoxicity against human GBM1 Cells 48 hrs by MTS assay. The conditions noted are these: GBM1, 48 h. The format is functional.
Test [11] in a line: Cytotoxicity against human GBM6 Cells 48 hrs by MTS assay. It is filed as functional. The conditions noted are these: GBM6, 48 h.
A short description of test [12]: Cytotoxicity against human GBM2 Cells 48 hrs by MTS assay. The conditions noted are these: GBM2, 48 h. The format is functional.
Test [13] concerns HT-29. The test is described as follows: Cytotoxicity against human HT-29 Cells. It is filed as functional, cell-based.
A further test has as its system SK-OV-3. The test is described as follows: Cytotoxicity against human SKOV3 Cells after 48 hrs by Cell Titer Blue assay. It is filed as functional, cell-based. The conditions noted are these: SK-OV-3, 48 h.
Another test relates to SW-620. The test is described as follows: Cytotoxicity against human SW620 Cells. The format is functional, cell-based.
The next test relates to HeLa. Nature of the test: Anticancer activity against human HeLa cells. It is filed as functional, cell-based.

Where only a bound is given, the exact number is not on record here.

Consider `COc1cc(CCC2=NC(=S)N=C(CCc3ccc(O)c(OC)c3)C2=Cc2coc3c(OC)c4occc4c(OC)c3c2=O)ccc1O`, for which the midpoint of inhibition in the test on HepG2 [1], the IC50, lay at 23 µM.

Consider `CCCOc1ccc(/C=C2\CN(C(=S)c3ccccc3)C/C(=C\c3ccc(OCCC)c(OC)c3)C2=O)cc1OC`, for which the IC50 in the test with HCT-116 [2] worked out at 0.207 µM.

For the compound `O=C(/C=C(O)/C=C/c1cccnc1)/C=C/c1cccnc1`, the IC50 in the test with EA.hy 926 came to 7.9 µM; with HT-29 [3], 8.2 µM; in the test on CHO-K1, 7.2 µM; in the test on Caco-2, 6.9 µM; in the test with HepG2 [4], 8.3 µM.

In the case of `CCCC(=O)Oc1ccc(/C=C2\CN(C(=O)c3ccccc3)C/C(=C\c3ccc(OC(=O)CCC)c(OCC)c3)C2=O)cc1OCC`, the IC50 in the test with HCT-116 [2] was 0.19 µM.

As for `COc1cc(/C=C2\CNC/C(=C\c3ccc(O)c(OC)c3)C2=O)ccc1O`, in [5], the midpoint of inhibition, the IC50, lay at 4.3 µM.

In the test on HCT-116 [2], `CCCC(=O)Oc1ccc(/C=C2\CN(C(C)=O)C/C(=C\c3ccc(OC(=O)CCC)c(OC)c3)C2=O)cc1OC` had an IC50 of 0.246 µM.

For `CCN1C/C(=C\c2cc(OC)c(OC)c(OC)c2)C(=O)/C(=C/c2cc(OC)c(OC)c(OC)c2)C1`, the IC50 with L02 stood at 46.8 µM; with HEp-2, 16.6 µM.

Consider `CC/C(=C(\c1ccccc1)c1ccc(OCCN(C)C)cc1)c1ccccc1` [TAMOXIFEN], for which the IC50 in the test with MCF7 worked out at 4 µM. This lies in the single-digit micromolar range.

Consider `COc1ccc(/C=C/C(=O)/C(CNc2ccc(S(N)(=O)=O)cc2)=C(O)/C=C/c2ccc(OC)cc2)cc1`, for which the IC50 in the test on A549 amounted to 6.25 µM; in the test on AGS, 11.9 µM.

As for `COc1ccc(NC(=O)COc2ccc(/C=C/C(=O)/C=C/c3ccc(OCC(=O)Nc4ccc(OC)cc4)c(OC)c3)cc2OC)cc1`, the figures for the “growth inhibition (GI)” value in the test on KBM5 and in the test on HCT-116 [6] were 83.63% and 57.96%, respectively.

`COc1ccc(OC)c(/C=C2\CNC/C(=C\c3cc(OC)ccc3OC)C2=O)c1`: the concentration for half-maximal inhibition (IC50) in [5] stood at 1.2 µM.

In the case of `COc1cc(/C=C/C(=O)/C(CNc2ccc(S(N)(=O)=O)cc2)=C(O)/C=C/c2ccc(O)c(OC)c2)ccc1O`, the IC50 in the test with A549 was found to be 1.29 µM; in the test on AGS, 10.2 µM.

As for `C=CC(=O)NC(c1ccccc1)C(C(=O)/C=C/c1cccc(O)c1)C(=O)/C=C/c1cccc(O)c1` (stereo not given), the IC50 is > 5 µM with U373 MG; 0.33 µM with U-251; 1.45 µM in [7]; 0.92 µM in test [8]; 1.26 µM in [9]; 0.38 µM in the test on U-87 MG. Moreover, the IC50 in test [10] came to 0.87 µM; in test [11] it was 2.32 µM; in [12], 1.43 µM.

Compound `COc1cc(/C=C/C(=O)CC(=O)/C=C/c2ccc(OC3O[C@H](CO)[C@@H](O)[C@H](O)[C@H]3O)c(OC)c2)ccc1OC1O[C@H](CO)[C@@H](O)[C@H](O)[C@H]1O` (stereo not given in full) yielded an IC50 in the test with HT-29 [13] of 41.6 µM. This counts as double-digit micromolar.

Regarding `COc1cc(F)c(/C=C2\CNC/C(=C\c3cc(OC)c(OC)cc3F)C2=O)cc1OC`, the midpoint of inhibition in test [5], the IC50, lay at 5.2 µM. In other words, the single-digit micromolar range.

The compound `COc1ccc(/C=C/C(=O)/C=C(O)/C=C/c2ccc(OC)c(OC)c2)cc1OC` registered an IC50 with SK-OV-3 of 3.51 µM. This lies in the single-digit micromolar range.

For the compound `O=C(/C=C(\O)c1ccccc1)c1ccccc1O` [2',beta-DIHYDROXYCHALCONE], the IC50 in the test on SW-620 stood at 14.5 µM; with HT-29 [13], 7.5 µM.

Turning to `COc1cc(/C=C/C(=O)/C=C(O)/C=C/c2ccc(OCC(=O)NCC(=O)O)c(OC)c2)ccc1OCC(=O)NCC(=O)O`, the IC50 with HeLa turned out to be 0.5 µM.

The values above are taken from ChEMBL document CHEMBL4364241, “Developments in the anticancer activity of structurally modified curcumin: An up-to-date review” (Eur J Med Chem, 2019).
